Reference: article PMC7269146, “Jingzhaotoxin-X, a gating modifier of Kv4.2 and Kv4.3 potassium channels purified from the venom of the Chinese tarantula Chilobrachys jingzhao” (The Journal of Venomous Animals and Toxins Including …, 2020)
Where a SMILES comes first, the peptide text is derived from it. Bridges are numbered along the chain shown (N, C = ends).

Molecular target: T1, Kv4.3 (Rattus norvegicus, UniProt Q62897)
T1 construct: expressed in transfected cells; host or cells: HEK293t
T1 sequence (Q62897 1-655): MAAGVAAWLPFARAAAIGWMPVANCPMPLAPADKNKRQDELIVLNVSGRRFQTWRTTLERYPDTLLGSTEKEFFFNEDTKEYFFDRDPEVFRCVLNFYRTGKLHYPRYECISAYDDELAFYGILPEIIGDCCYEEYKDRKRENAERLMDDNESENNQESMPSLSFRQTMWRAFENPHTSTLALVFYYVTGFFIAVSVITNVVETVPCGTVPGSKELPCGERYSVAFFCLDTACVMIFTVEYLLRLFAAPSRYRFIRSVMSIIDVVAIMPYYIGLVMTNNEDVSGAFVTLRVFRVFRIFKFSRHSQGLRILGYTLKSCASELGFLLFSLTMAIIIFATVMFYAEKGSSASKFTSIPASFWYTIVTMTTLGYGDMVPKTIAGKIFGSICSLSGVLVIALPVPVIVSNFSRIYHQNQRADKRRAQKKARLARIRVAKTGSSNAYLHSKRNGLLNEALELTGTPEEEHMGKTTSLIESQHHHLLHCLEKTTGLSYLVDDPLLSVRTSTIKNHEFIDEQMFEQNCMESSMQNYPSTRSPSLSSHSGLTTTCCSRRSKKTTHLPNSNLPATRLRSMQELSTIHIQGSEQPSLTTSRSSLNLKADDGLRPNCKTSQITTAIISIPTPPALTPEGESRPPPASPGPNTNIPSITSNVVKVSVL
Test: current-voltage relationship / activation, Kv4.3
Assay type: cell-based
Excerpt: Rat cDNA genes encoding Kv4.2 (Accession: NM_031730.2) and Kv4.3 (Accession: AB003587.1) were subcloned to vector pcDNA3.1. In addition, human cDNA genes encoding Nav1.7 (Accession: DQ857292.1) and Nav1.5 (Accession: AB158469.2) were subcloned to vectors pcDNA3.1-mod and pcDNA3.1, separately. Then, Kv4.2, Kv4.3, Nav1.5 and Nav1.7 constructs were transiently transfected into the human embryonic kidney 293t (HEK293t) cells using lipofectamine 2000 (Invitrogen, USA) in accordance with manufacturer protocols. Thereafter, HEK293 cells were inoculated within Dulbecco’s modified Eagle’s medium (DMEM) containing 10% fetal bovine serum (FBS) at 5% CO2 and 37°C. The Kv4.3 channel and the Kv4.2 counterpart were then transfected in the absence of β subunit. Subsequently, cells were incubated with a DNA-lipofectamine mixture (one reporter plasmid for green fluorescence protein and channel constructs) for 4-6 h, and were washed with the fresh medium.
An EPC-10 patch-clamp amplifier (HEKA, Germany) was employed to record the potassium currents at the configuration of whole-cell patch-clamp under an ambient temperature of 22-25°C. The resistance was 2.0-3.0 MΩ when the recording pipette contained a full volume of internal solution (supplemented with 140 mM KCl, 10 mM HEPES, 2.5 mM MgCl2, 5 mM ATP and 11 mM EGTA). KOH was utilized to adjust the pH to 7.2, while sucrose was employed to adjust the osmolarity to 310 mOsm/L. The culture medium was replaced with an external solution containing 150 mM NaCl, 2.5 mM CaCl2, 10 mM HEPES, 2 mM MgCl2, 5 mM KCl, and 10 mM D-glucose. Similarly, sucrose and NaOH were applied to adjust the osmolarity to 330 mOsm/L and pH to 7.4. […] The series resistance was maintained at about 5 MΩ, with 65-70% compensation. Finally, the leakage currents and linear capacitance were subtracted digitally according to the P/4 protocol.
The voltage-dependent inhibition of Kv4.2 and Kv4.3 channels by JZTX-X was determined by the depolarizing pulses to potentials in 10 mV steps from −80 to +60 mV at an interval of 10 s and the holding potential of -80 mV. […] For quantifying the voltage-depending inhibition of Kv4.2 and Kv4.3 channels, the relative current was drawn based on the membrane potential. Under control conditions, those threshold potentials to initially activate Kv4.2 and Kv4.3 currents were around -40 mV. The JZTX-X treatment at 500 nM inhibited the Kv4.2 and Kv4.3 currents, and then the I-V relation shifted to the right by about 30 mV (from -39.5 ± 1.9 mV to -11.3 ± 1.2 mV ) and 40 mV (from -39.8 ± 1.5 mV to -2.5 ± 0.9 mV ), separately (Fig. 5C and D). Additionally, the channel conductance also shifted rightward by around 30 mV (data not shown).
Figure 5. […] All data were expressed as mean ± S.E.M (n = 5-7 cells).

CC(C)C[C@@H]1NC(=O)[C@H](CCCCN)NC(=O)[C@H](Cc2ccc(O)cc2)NC(=O)[C@@H]2CSSC[C@@H]3NC(=O)[C@H](Cc4ccc(O)cc4)NC(=O)[C@H](Cc4ccccc4)NC(=O)CNC(=O)[C@H](C)NC(=O)[C@H](CSSC[C@H](NC(=O)[C@@H](N)CC(C)C)C(=O)N[C@@H](CO)C(=O)N[C@@H](CCCNC(=N)N)C(=O)N[C@@H](CCC(=O)O)C(=O)NCC(=O)N[C@@H](CCC(=O)O)C(=O)N[C@@H](Cc4ccccc4)C(=O)N2)NC(=O)[C@H](CSSC[C@@H](C(=O)N[C@@H](Cc2ccc(O)cc2)C(=O)N[C@@H](CCCNC(=N)N)C(=O)N[C@@H](CC(N)=O)C(=O)O)NC(=O)[C@H](Cc2c[nH]cn2)NC(=O)[C@H](CC(C)C)NC(=O)[C@H](C(C)C)NC(=O)[C@H](Cc2ccccc2)NC(=O)[C@H](C)NC(=O)[C@H](CCCCN)NC3=O)NC(=O)[C@H](CCCCN)NC(=O)[C@H](CCCNC(=N)N)NC1=O [JZTX-X, Jingzhaotoxin-X] (H-LCSREGEFCYKLRKCCAGFYCKAFVLHCYRN-OH; disulfide 2-16, 9-21, 15-28; N-terminus assumed)
I-V relation potential after toxin, Kv4.3 (500 nM, control -39.8 ± 1.5 mV, holding -80 mV, n = 5-7 cells): -2.5 ± 0.9 mV | rightward shift of I-V relation, Kv4.3 (500 nM, holding -80 mV): ~40 mV | rightward shift of channel conductance, Kv4.3 (data not shown, channel not named separately): about 30 mV | voltage dependence of Kv4.3 inhibition (test potentials -10 to +60 mV, 100 nM and 500 nM): dependent on voltage
